Literature values as cited in PMC12697872, “Rethinking the AI Paradigm for Solubility Prediction of Drug‑Like Compounds with Dual‐Perspective Modeling and Experimental Validation” (Advanced Science, 2025).

Details: experimental aqueous solubility as logS, sheet "DrugBank" of Supplement 2; ref DrugBank; cited from earlier work

Row | SMILES | ex_logS
1 | Clc1ccc2c(c1)C(c1ccccc1)=NCc1nncn1-2 [Estazolam] | -5.293
2 | CCN1C(=O)NC(c2ccccc2)C1=O (centres unmarked) [Ethotoin] | -1.587
3 | CCOC(=O)c1cncn1[C@H](C)c1ccccc1 [Etomidate] | -3.587
4 | CCC(N)Cc1c[nH]c2ccccc12 (centres unmarked) [Etryptamine] | -2.567
5 | Cc1cnc(Nc2ccc(OCCN3CCCC3)cc2)nc1Nc1cccc(S(=O)(=O)NC(C)(C)C)c1 [Fedratinib] | -5.118
6 | O=C(O)c1ccccc1Nc1cccc(C(F)(F)F)c1 [Flufenamic acid] | -4.4905
7 | C[C@]1(O)CC[C@H]2[C@@H]3CCC4=CC(=O)CC[C@]4(C)[C@@]3(F)[C@@H](O)C[C@@]21C [Fluoxymesterone] | -3.698
8 | CC(C(=O)O)c1ccc(-c2ccccc2)c(F)c1 (centres unmarked) [Flurbiprofen] | -4.485
9 | CC(C)C(=O)Nc1ccc([N+](=O)[O-])c(C(F)(F)F)c1 [Flutamide] | -4.466
10 | CC(OC(=O)NCC1(CC(=O)O)CCCCC1)OC(=O)C(C)C (centres unmarked) [Gabapentin enacarbil] | -2.819
11 | COC1=CC(=O)C[C@@H](C)[C@]12Oc1c(Cl)c(OC)cc(OC)c1C2=O [Griseofulvin] | -4.611
12 | CN1C(=O)NC(=O)C(C)(C2=CCCCC2)C1=O (centres unmarked) [Hexobarbital] | -2.735
13 | N[C@@H](Cc1c[nH]cn1)C(=O)O [Histidine] | -0.5318
14 | O=c1[nH]cnc2nc[nH]c12 [Hypoxanthine] | -2.2888
15 | c1ccc2cnccc2c1 [Isoquinoline] | -1.456
16 | O=[N+]([O-])O[C@H]1CO[C@H]2[C@@H]1OC[C@H]2O[N+](=O)[O-] [Isosorbide dinitrate] | -2.6328
17 | Nc1ccn([C@@H]2CS[C@H](CO)O2)c(=O)n1 [Lamivudine] | -0.5152
18 | CCCCCCCCCCCC(=O)O [Lauric acid] | -4.62

Row | SMILES | ex_logS
19 | N[C@@H](Cc1ccc(O)c(O)c1)C(=O)O [Levodopa] | -2.299
20 | CN1c2c(nc(N)[nH]c2=O)NC[C@@H]1CNc1ccc(C(=O)N[C@@H](CCC(=O)O)C(=O)O)cc1 [Levomefolic acid] | -3.185
21 | CC(C)[C@@H]1CC[C@@H](C)C[C@H]1O [Levomenthol] | -2.504
22 | Cl[C@H]1[C@H](Cl)[C@@H](Cl)[C@@H](Cl)[C@H](Cl)[C@H]1Cl [Lindane] | -4.6
23 | O=C(O)CC(=O)O [Malonic acid] | 0.8652
24 | CC(=O)[C@@]1(C)CC[C@H]2[C@@H]3C=C(C)C4=CC(=O)CC[C@]4(C)[C@H]3CC[C@@]21C [Medrogestone] | -5.277
25 | Cc1cccc(C)c1NC(=O)C1CCCCN1C (centres unmarked) [Mepivacaine] | -1.991
26 | CCCC(C)(COC(N)=O)COC(N)=O [Meprobamate] | -1.667
27 | S=c1[nH]cnc2nc[nH]c12 [Mercaptopurine] | -3.089
28 | CSCC[C@H](N)C(=O)O [Methionine] | -0.421
29 | CC(C(=O)O)C(=O)O [Methylmalonic Acid] | 0.7597
30 | CC(=O)Oc1c(C)cc(OCC(O)CNC(C)C)c(C)c1C (centres unmarked) [Metipranolol] | -2.72
31 | Cc1ccccc1N1C(=O)c2cc(S(N)(=O)=O)c(Cl)cc2NC1C (centres unmarked) [Metolazone] | -3.783
32 | COc1c(C)c2c(c(O)c1C/C=C(\C)CCC(=O)OCCN1CCOCC1)C(=O)OC2 [Mycophenolate mofetil] | -4.004
33 | CC(C)(C)NCC(O)COc1cccc2c1CC(O)C(O)C2 (centres unmarked) [Nadolol] | -1.57
34 | NC(=O)c1cccnc1 [Nicotinamide] | 0.6122
35 | O=C1CN(/N=C/c2ccc([N+](=O)[O-])o2)C(=O)N1 [Nitrofurantoin] | -3.4765
36 | CC(C)NCC(O)c1cc(O)cc(O)c1 (centres unmarked) [Orciprenaline] | -4.338

Same assay, conditions: experimental aqueous solubility as logS, sheet "DrugBank"; ref DrugBank database; cited from earlier work

Row | SMILES | ex_logS
37 | C[C@]12CC[C@H]3C(=CCc4cc(O)ccc43)[C@@H]1CCC2=O [Equilin] | -5.279
38 | C[C@@H](CO)NC(=O)[C@@H]1C=C2c3cccc4[nH]cc(c34)C[C@H]2N(C)C1 [Ergometrine] | -2.084
39 | C#CC1(OC(N)=O)CCCCC1 [Ethinamate] | -1.825
40 | C#C[C@]1(O)CC[C@H]2[C@@H]3CCc4cc(O)ccc4[C@H]3CC[C@@]21C [Ethinylestradiol] | -4.4188
41 | CCC1(C)CC(=O)NC1=O (centres unmarked) [Ethosuximide] | -0.5564
42 | CCc1cccc2c3c([nH]c12)C(CC)(CC(=O)O)OCC3 (centres unmarked) [Etodolac] | -4.2543
43 | CCOC(=O)C1=C(C)NC(C)=C(C(=O)OC)C1c1cccc(Cl)c1Cl (centres unmarked) [Felodipine] | -4.29
44 | O=c1[nH]c(=O)n([C@H]2C[C@H](O)[C@@H](CO)O2)cc1F [Floxuridine] | -1.316
45 | Nc1nc(F)nc2c1ncn2[C@@H]1O[C@H](CO)[C@@H](O)[C@@H]1O [Fludarabine] | -1.907
46 | CCOC(=O)c1ncn2c1CN(C)C(=O)c1cc(F)ccc1-2 [Flumazenil] | -3.375
47 | CC(=O)[C@@]1(O)CC[C@H]2[C@@H]3C[C@H](C)C4=CC(=O)C=C[C@]4(C)[C@@]3(F)[C@@H](O)C[C@@]21C [Fluorometholone] | -4.0986
48 | CC(C)n1c(/C=C/C(O)CC(O)CC(=O)O)c(-c2ccc(F)cc2)c2ccccc21 (centres unmarked) [Fluvastatin] | -5.952
49 | Nc1ccn([C@@H]2O[C@H](CO)[C@@H](O)C2(F)F)c(=O)n1 [Gemcitabine] | -1.236
50 | O=C(OCCO)c1ccccc1O [Glycol salicylate] | -1.143
51 | O=C(CCCN1CCC(O)(c2ccc(Cl)cc2)CC1)c1ccc(F)cc1 [Haloperidol] | -4.4289
52 | CCC1(C2=CCCCCC2)C(=O)NC(=O)NC1=O [Heptabarbital] | -3.001
53 | COc1ccc([C@@H]2CC(=O)c3c(O)cc(O)cc3O2)cc1O [Hesperetin] | -3.044
54 | CC(C)Cc1ccc(C(C)C(=O)O)cc1 (centres unmarked) [Ibuprofen] | -3.992
55 | O=c1[nH]c(=O)n([C@H]2C[C@H](O)[C@@H](CO)O2)cc1I [Idoxuridine] | -2.248

Row | SMILES | ex_logS
56 | CN(C)CCCN1c2ccccc2CCc2ccccc21 [Imipramine] | -4.188
57 | COc1ccc2c(c1)c(CC(=O)O)c(C)n2C(=O)c1ccc(Cl)cc1 [Indomethacin] | -5.582
58 | CC[C@H](C)[C@H](N)C(=O)O [Isoleucine] | -0.5813
59 | NNC(=O)c1ccncc1 [Isoniazid] | 0.008966
60 | CC1=C(/C=C/C(C)=C/C=C/C(C)=C\C(=O)O)C(C)(C)CCC1 [Isotretinoin] | -4.799
61 | CCn1c(=O)c2c(nc(/C=C/c3ccc(OC)c(OC)c3)n2C)n(CC)c1=O [Istradefylline] | -5.886
62 | Nc1nnc(-c2cccc(Cl)c2Cl)c(N)n1 [Lamotrigine] | -3.178
63 | Cc1c(OCC(F)(F)F)ccnc1C[S+]([O-])c1nc2ccccc2[nH]1 (centres unmarked) [Lansoprazole] | -5.581
64 | Cc1oncc1C(=O)Nc1ccc(C(F)(F)F)cc1 [Leflunomide] | -4.109
65 | CC[C@@H](C(N)=O)N1CCCC1=O [Levetiracetam] | 0.786
66 | N[C@@H](Cc1cc(I)c(Oc2cc(I)c(O)c(I)c2)c(I)c1)C(=O)O [Levothyroxine] | -3.869
67 | O=NN(CCCl)C(=O)NC1CCCCC1 [Lomustine] | -3.323
68 | CC[C@H](C)C(=O)O[C@H]1C[C@@H](C)C=C2C=C[C@H](C)[C@H](CC[C@@H]3C[C@@H](O)CC(=O)O3)[C@H]21 [Lovastatin] | -6.0049
69 | OC[C@@H](O)[C@@H](O)[C@H](O)[C@H](O)CO [Mannitol] | 0.07397
70 | CCC(C)C(C)(COC(N)=O)COC(N)=O (centres unmarked) [Mebutamate] | -2.366
71 | Cc1cnc(NC(=O)C2=C(O)c3ccccc3S(=O)(=O)N2C)s1 [Meloxicam] | -4.467
72 | CC(=O)/N=c1/sc(S(N)(=O)=O)nn1C [Methazolamide] | -1.829
73 | CN1CCC(CN2c3ccccc3Sc3ccccc32)C1 (centres unmarked) [Methdilazine] | -5.93
74 | COc1ccccc1OCC(O)COC(N)=O (centres unmarked) [Methocarbamol] | -0.9845

Row | SMILES | ex_logS
75 | COc1ccc2c(c1)N(C[C@H](C)CN(C)C)c1ccccc1S2 [Methotrimeprazine] | -4.215
76 | C[C@](N)(Cc1ccc(O)c(O)c1)C(=O)O [Methyldopa] | -1.325
77 | COC(=O)C(c1ccccc1)C1CCCCN1 (centres unmarked) [Methylphenidate] | -2.269
78 | C[C@]12CCC(=O)C=C1CC[C@@H]1[C@@H]2CC[C@@]2(C)[C@H]1CC[C@]2(C)O [Methyltestosterone] | -3.95
79 | CCC1(CC)C(=O)NCC(C)C1=O (centres unmarked) [Methyprylon] | -1.202
80 | Nc1nc(CC(=O)Nc2ccc(CCNC[C@H](O)c3ccccc3)cc2)cs1 [Mirabegron] | -3.684
81 | Clc1ccc(C(c2ccccc2Cl)C(Cl)Cl)cc1 (centres unmarked) [Mitotane] | -6.505
82 | Oc1ccc(OCc2ccccc2)cc1 [Monobenzone] | -2.902
83 | CCOC(=O)Nc1ccc2c(c1)N(C(=O)CCN1CCOCC1)c1ccccc1S2 [Moricizine] | -5.971
84 | CCCCC(=O)O [N-Valeric Acid] | -0.6289
85 | OC[C@H]1O[C@@H](n2cnc3cncnc32)[C@H](O)[C@@H]1O [Nebularine] | -0.4018
86 | CCCc1c2oc(C(=O)O)cc(=O)c2cc2c(=O)cc(C(=O)O)n(CC)c12 [Nedocromil] | -3.4084
87 | O=C(O)c1cccnc1 [Niacin] | -0.835
88 | COC(=O)C1=C(C)NC(C)=C(C(=O)OCCN(C)Cc2ccccc2)C1c1cccc([N+](=O)[O-])c1 (centres unmarked) [Nicardipine] | -5.338
89 | O=C(O)c1cccnc1Nc1cccc(C(F)(F)F)c1 [Niflumic acid] | -4.172
90 | NC(=O)N/N=C/c1ccc([N+](=O)[O-])o1 [Nitrofural] | -2.975
91 | CNCCC=C1c2ccccc2CCc2ccccc21 [Nortriptyline] | -5.481
92 | COc1ccc2[nH]c([S+]([O-])Cc3ncc(C)c(OC)c3C)nc2c1 (centres unmarked) [Omeprazole] | -2.983
